Holding throughout (type): cell-based, Candida albicans
For assay [1], the system named is C. albicans. Briefly: Filamentation assay (hyphal growth, phase-contrast images). The following applies: 0.4%, RPMI, 37° C., 8 h, vs monosaccharide pool and medium alone. Here is the method: Hyphal growth of C. albicans was induced by diluting cells to OD600=0.05 into prewarmed hyphae-inducing medium as indicated and incubating at 37° C. (200 rpm) in a glass-bottom, 96-well plate. Cells were grown in hyphae-inducing medium for several hours, as described in BRIEF DESCRIPTION OF THE DRAWINGS. Images were acquired with a confocal laser scanning microscope (Zeiss, Oberkochen, Germany; LSM 800) equipped with a ×63/1.4 NA oil-immersion or a 25× objective. Images were analyzed using Zeiss ZEN v.2.1. Representative micrographs are shown.

The subject of assay [2] is C. albicans SC5314. Briefly: RT-qPCR analysis of C. albicans gene expression. As to conditions: for suppression of filamentation-associated genes: broader range of genes, six synthetic glycans, FIG. 9E; for effect of the added sugar on the gene regulatory activity (YWP1, ECE1) of the unmodified Core: compared with Core 1 or Core 2; for ECE1 transcription / YWP1 transcription: modified Core structures, FIGS. 9C-9D; for YWP1 expression: 0.1% (w/v) synthetic glycan. Here is the method:
For RNA extraction from C. albicans grown in the presence or absence of mucin glycans, 100 μL of RPMI or 0.1% w/v MUC5AC glycans in RPMI were inoculated with a 1:50 dilution of an overnight culture of strain SC5314 and incubated at 37° C. for the time indicated. Total RNA was extracted with the MasterPure RNA Purification Kit (Lucigen, Middleton, WI) and residual DNA was removed using the Turbo DNA-free kit (Ambion, Austin, TX). The integrity of the total RNA was assessed using an Agilent 2100 Bioanalyzer (Agilent Technologies, Santa Clara, CA). rRNA was removed using the Ribo-Zero® rRNA Removal Kit (Yeast; Epicentre).
A list of the primers used in this study is provided in Table 1. qPCR with reverse transcription (RT-qPCR) was performed using a two-step method. First-strand cDNA was synthesized from total RNA using the […] First Strand cDNA Synthesis kit (New England Biolabs, Ipswich, MA). The cDNA was used as template for RT-qPCR using a SYBR PowerUp Master Mix kit (Applied Biosystems, Life Technologies) on a Roche LightCycler 480 real-time PCR system. The ACT1 and 18S rRNA genes were used as endogenous controls as specified. […] Changes in gene expression were calculated based on mean change in qPCR cycle threshold (ΔCt) using the ΔΔCt method (fold change=[…]).
(In general: Quantitative PCR measures a nucleic acid by following its amplification.)

Assay [3] concerns C. albicans. Briefly: C. albicans growth (growth curves). As to conditions: 0.1% (w/v). Here is the method:
Strains were maintained on yeast extract peptone dextrose (YPD) agar (2% Bacto peptone, 2% glucose, 1% yeast extract, 2% agar) and grown at 30° C. Single colonies were inoculated into YPD broth and grown with shaking overnight at 30° C. prior to each experiment. Experiments were performed with Gibco RPMI 1640 medium (Life Technologies, Carlsbad, CA; #31800-089) buffered with 165 mM 3-(N-morpholino)propanesulfonic acid (MOPS) and supplemented with 0.2% NaHCO3 and 2% glucose; YPD medium with 10% fetal bovine serum; GlcNAc medium (0.5% N-acetylglucosamine, 0.5% peptone, 0.3% KH2PO4); Spider medium (1% nutrient broth, 1% D-mannitol, 2 g K2HPO4, 50 mg/mL arginine, 10 mg/mL histidine, and 50 mg/mL tryptophan); or Lee's medium^45. Growth curves were performed in Synthetic Defined (SD)+0.004% (w/v) L-Arginine+0.0025% (w/v) L-Leucine media with 2% glucose.

Assay [4] relates to C. albicans SC5314. Nature of the assay: RT-qPCR analysis of C. albicans gene expression. The following applies: for ECE1 expression: 0.1% and 0.4%; for YWP1 expression on concentration increase: increase to 0.4% (w/v).

`CO[C@H]1O[C@H](CO)[C@H](O)[C@H](O[C@@H]2O[C@H](CO)[C@H](O)[C@H](O)[C@H]2O[C@@H]2O[C@@H](C)[C@@H](O)[C@@H](O)[C@@H]2O)[C@H]1NC(C)=O` [Core 1+fucose, Methyl α-L-fucopyranosyl-(1→2)-β-D-galactopyranosyl-(1→3)-2-acetamido-2-deoxy-α-D-galactopyranoside]: the “filamentation, synthetic glycan structures” value with C. albicans [1] is reported as “most potently blocked filamentation”. In the assay on C. albicans SC5314 [2], the “suppression of filamentation-associated genes” value (“suppression” below) is recorded as “strongest suppression”; the “effect of the added sugar on the gene regulatory activity (YWP1, ECE1) of the unmodified Core” value (“effect of the added sugar” below) is on record as “did not measurably alter”; the ECE1 transcription result is on record as “downregulating ECE1”; the YWP1 transcription entry is “transcriptionally upregulated YWP1”.

As to `CO[C@H]1O[C@H](CO)[C@H](O)[C@H](O[C@@H]2O[C@H](CO)[C@H](O)[C@H](O)[C@H]2O)[C@H]1NC(C)=O` [Core 1, Methyl β-D-galactopyranosyl-(1→3)-2-acetamido-2-deoxy-α-D-galactopyranoside], the “filamentation, synthetic glycan structures” value with C. albicans [1] is on record as “most potently blocked filamentation”. In addition, in the assay with C. albicans [3], the “toxic effects, as measured by C. albicans growth” value is “Neither Core 1 nor Core 2 showed toxic effects”. Further, in the assay with C. albicans SC5314 [4], the ECE1 expression result is “suppressed ECE1 expression at 0.1% and 0.4%, albeit less strongly than the mucin glycan pool”; the “YWP1 expression on concentration increase” value is reported as “did not significantly alter YWP1 expression”. Also, in the assay with C. albicans SC5314 [2], the YWP1 expression entry is recorded as “upregulated YWP1 expression at 0.1% (w/v) to a similar degree as the intact mucin pool” and the “suppression” value is recorded as “strongest suppression”.

`CO[C@H]1O[C@H](CO[C@@H]2O[C@H](CO)[C@@H](O[C@@H]3O[C@H](CO)[C@H](O)[C@H](O)[C@H]3O)[C@H](O)[C@H]2NC(C)=O)[C@H](O)[C@H](O[C@@H]2O[C@H](CO)[C@H](O)[C@H](O)[C@H]2O)[C@H]1NC(C)=O` [Core 2+galactose, Methyl β-D-galactopyranosyl-(1→4)-2-acetamido-2-deoxy-β-D-glucopyranosyl-(1→6)-[β-D-galactopyranosyl-(1→3)]-2-acetamido-2-deoxy-α-D-galactopyranoside]: the “filamentation, synthetic glycan structures” value with C. albicans [1] is on record as “most potently blocked filamentation”. In the assay on C. albicans SC5314 [2], the “suppression” value is “strongest suppression”; the “effect of the added sugar” value is given as “did not significantly alter Core 2 activity”; the ECE1 transcription entry is given as “downregulating ECE1”; the YWP1 transcription result is reported as “transcriptionally upregulated YWP1”.

Take `CO[C@H]1O[C@H](CO[C@@H]2O[C@H](CO)[C@@H](O)[C@H](O)[C@H]2NC(C)=O)[C@H](O)[C@H](O[C@@H]2O[C@H](CO)[C@H](O)[C@H](O)[C@H]2O)[C@H]1NC(C)=O` [Core 2, Methyl β-D-galactopyranosyl-(1→3)-[2-acetamido-2-deoxy-β-D-glucopyranosyl-(1→6)]-2-acetamido-2-deoxy-α-D-galactopyranoside]: the “toxic effects, as measured by C. albicans growth” value in the assay with C. albicans [3] was “Neither Core 1 nor Core 2 showed toxic effects”. In the assay with C. albicans SC5314 [4], the ECE1 expression entry is “suppressed ECE1 expression at 0.1% and 0.4%, albeit less strongly than the mucin glycan pool”; the “YWP1 expression on concentration increase” value is reported as “did not significantly alter YWP1 expression”. Further, the YWP1 expression result in the assay with C. albicans SC5314 [2] is on record as “upregulated YWP1 expression at 0.1% (w/v) to a similar degree as the intact mucin pool”.

As for `CO[C@H]1O[C@H](CO)[C@H](O)[C@H](O[C@@H]2O[C@H](CO)[C@H](O)[C@H](O[C@]3(C(=O)[O-])C[C@H](O)[C@@H](NC(C)=O)[C@H]([C@H](O)[C@H](O)CO)O3)[C@H]2O)[C@H]1NC(C)=O.[Na+]` [Core 1+sialic acid, Methyl 3-O-(sodium 5-acetamido-3,5-dideoxy-D-glycero-α-D-galacto-2-nonulopyranosylonate)-β-D-galactopyranosyl-(1→3)-2-acetamido-2-deoxy-α-D-galactopyranoside], the “filamentation, synthetic glycan structures” value in the assay with C. albicans [1] is “less effective at suppressing filamentation”. In addition, in the assay on C. albicans SC5314 [2], the “suppression” value is “weakest effect”; the “effect of the added sugar” value is recorded as “dampened the gene regulatory response of Core 1”; the ECE1 transcription result is “downregulating ECE1”; the YWP1 transcription result is reported as “transcriptionally upregulated YWP1”.

Regarding `CO[C@H]1O[C@H](CO[C@@H]2O[C@H](CO)[C@@H](O)[C@H](O)[C@H]2NC(C)=O)[C@H](O)[C@H](O[C@@H]2O[C@H](CO)[C@H](O)[C@H](O)[C@H]2O[C@@H]2O[C@@H](C)[C@@H](O)[C@@H](O)[C@@H]2O)[C@H]1NC(C)=O` [Core 2+fucose, Methyl α-L-fucopyranosyl-(1→2)-β-D-galactopyranosyl-(1→3)-[2-acetamido-2-deoxy-β-D-glucopyranosyl-(1→6)]-2-acetamido-2-deoxy-α-D-galactopyranoside], in the assay with C. albicans SC5314 [2], the “effect of the added sugar” value was “did not measurably alter”; the ECE1 transcription result is listed as “downregulating ECE1”; the YWP1 transcription entry is recorded as “transcriptionally upregulated YWP1”.

These data come from patent publication US20230321186A1, “Mucin Glycans as Antifungal Agents” (Massachusetts Institute of Technology, priority 2022, published 2023).
